SMILES strings stand for the structures.

In this assay the target is T1, ITK (Homo sapiens, UniProt Q08881).
T1 construct: purchased Invitrogen PV3875
T1 sequence (Q08881 1-620): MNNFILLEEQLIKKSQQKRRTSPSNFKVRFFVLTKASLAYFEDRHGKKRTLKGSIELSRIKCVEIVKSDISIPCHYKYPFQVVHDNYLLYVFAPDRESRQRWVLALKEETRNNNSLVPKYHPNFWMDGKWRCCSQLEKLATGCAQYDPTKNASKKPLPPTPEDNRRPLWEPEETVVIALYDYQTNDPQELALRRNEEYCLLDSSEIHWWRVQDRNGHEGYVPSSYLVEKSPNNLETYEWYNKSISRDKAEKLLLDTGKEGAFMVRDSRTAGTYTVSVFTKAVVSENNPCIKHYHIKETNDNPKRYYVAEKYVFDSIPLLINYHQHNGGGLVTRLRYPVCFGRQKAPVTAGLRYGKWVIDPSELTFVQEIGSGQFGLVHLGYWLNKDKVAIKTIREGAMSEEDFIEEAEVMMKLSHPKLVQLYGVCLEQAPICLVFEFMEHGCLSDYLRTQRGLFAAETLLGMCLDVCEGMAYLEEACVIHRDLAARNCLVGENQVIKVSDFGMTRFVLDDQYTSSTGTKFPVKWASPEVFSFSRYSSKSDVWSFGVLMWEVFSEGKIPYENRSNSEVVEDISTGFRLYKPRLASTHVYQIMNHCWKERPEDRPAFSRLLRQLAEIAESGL
The experiment in a line: ITK enzyme assay (Caliper or LCMS peptide phosphorylation). The class given is biochemical. The settings on record: purified ITK (Invitrogen PV3875), 20 μM ATP, Ki by Morrison's quadratic equation. In a few lines: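 Ki values come from Morrison quadratic fits of activity versus inhibitor concentration, adjusted for ATP-competitive inhibition against ATP/Km,app. Substrate and phosphopeptide from purified ITK reactions were resolved either microfluidically (Caliper, EDTA stop) or by LC-MS MRM (TCA stop).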
As for `CC(c1cccnc1)n1cc(NC(=O)c2n[nH]c3c2CCC(C)(C)C3)cn1` (single isomer, unassigned) [Example 106a, 6,6-dimethyl-N-(1-(1-(pyridin-3-yl)ethyl)-1H-pyrazol-4-yl)-4,5,6,7-tetrahydro-1H-indazole-3-carboxamide], the inhibitory constant (Ki) (as a rule, a measure of affinity in units of concentration, obtained from inhibition or displacement) came out at 3 nM. In turn, `CC(c1cccnc1)n1cc(NC(=O)c2n[nH]c3c2CCC(C)(C)C3)cn1` (single isomer, unassigned) [Example 106b, 6,6-dimethyl-N-(1-(1-(pyridin-3-yl)ethyl)-1H-pyrazol-4-yl)-4,5,6,7-tetrahydro-1H-indazole-3-carboxamide] came in with a Ki of 5 nM. As to `CC(c1ccncc1)n1cc(NC(=O)c2n[nH]c3c2CCC(C)(C)C3)cn1` (single isomer, unassigned) [Example 107a, 6,6-dimethyl-N-(1-(1-(pyridin-4-yl)ethyl)-1H-pyrazol-4-yl)-4,5,6,7-tetrahydro-1H-indazole-3-carboxamide], the Ki amounted to 18 nM. Compound `CC(c1ccncc1)n1cc(NC(=O)c2n[nH]c3c2CCC(C)(C)C3)cn1` (single isomer, unassigned) [Example 107b, 6,6-dimethyl-N-(1-(1-(pyridin-4-yl)ethyl)-1H-pyrazol-4-yl)-4,5,6,7-tetrahydro-1H-indazole-3-carboxamide] returned a Ki of 14 nM.

On to `CC(c1cncc(F)c1)n1cc(NC(=O)c2n[nH]c3c2CCC(C)(C)C3)cn1` (single isomer, unassigned) [Example 108a, N-(1-(1-(5-fluoropyridin-3-yl)ethyl)-1H-pyrazol-4-yl)-6,6-dimethyl-4,5,6,7-tetrahydro-1H-indazole-3-carboxamide], for which the inhibitory constant (Ki) turned out to be 17 nM.

As for `CC(c1cncc(F)c1)n1cc(NC(=O)c2n[nH]c3c2CCC(C)(C)C3)cn1` (single isomer, unassigned) [Example 108b, N-(1-(1-(5-fluoropyridin-3-yl)ethyl)-1H-pyrazol-4-yl)-6,6-dimethyl-4,5,6,7-tetrahydro-1H-indazole-3-carboxamide], the affinity, expressed as Ki, was 5 nM.

In the case of `COc1ccc(C(C)n2cc(NC(=O)c3n[nH]c4c3CCC(C)(C)C4)cn2)cn1` (single isomer, unassigned) [Example 109a, N-(1-(1-(6-methoxypyridin-3-yl)ethyl)-1H-pyrazol-4-yl)-6,6-dimethyl-4,5,6,7-tetrahydro-1H-indazole-3-carboxamide], the affinity, expressed as Ki, was 4 nM. The compound `COc1ccc(C(C)n2cc(NC(=O)c3n[nH]c4c3CCC(C)(C)C4)cn2)cn1` (single isomer, unassigned) [Example 109b, N-(1-(1-(6-methoxypyridin-3-yl)ethyl)-1H-pyrazol-4-yl)-6,6-dimethyl-4,5,6,7-tetrahydro-1H-indazole-3-carboxamide] returned an inhibitory constant (Ki) of 21 nM. Next, `CC1(C)CCc2c(C(=O)Nc3cnn(C(c4cccc(C#N)c4)C4CCS(=O)(=O)CC4)c3)n[nH]c2C1` (single isomer, unassigned) [Example 110a, N-(1-((3-cyanophenyl)(1,1-dioxidotetrahydro-2H-thiopyran-4-yl)methyl)-1H-pyrazol-4-yl)-6,6-dimethyl-4,5,6,7-tetrahydro-1H-indazole-3-carboxamide]: 0.2 nM. For the compound `CC1(C)CCc2c(C(=O)Nc3cnn(C(c4cccc(C#N)c4)C4CCS(=O)(=O)CC4)c3)n[nH]c2C1` (single isomer, unassigned) [Example 110b, N-(1-((3-cyanophenyl)(1,1-dioxidotetrahydro-2H-thiopyran-4-yl)methyl)-1H-pyrazol-4-yl)-6,6-dimethyl-4,5,6,7-tetrahydro-1H-indazole-3-carboxamide], the Ki turned out to be 3 nM.

On to `CC1(C)CCc2c(C(=O)Nc3cnn(C(c4ccccc4)C4CCOCC4)c3)n[nH]c2C1` (single isomer, unassigned) [Example 113a, 6,6-dimethyl-N-(1-(phenyl(tetrahydro-2H-pyran-4-yl)methyl)-1H-pyrazol-4-yl)-4,5,6,7-tetra hydro-1H-indazole-3-carboxamide], for which the Ki came to 5 nM. In the case of `CC1(C)CCc2c(C(=O)Nc3cnn(C(c4ccccc4)C4CCOCC4)c3)n[nH]c2C1` (single isomer, unassigned) [Example 113b, 6,6-dimethyl-N-(1-(phenyl(tetrahydro-2H-pyran-4-yl)methyl)-1H-pyrazol-4-yl)-4,5,6,7-tetra hydro-1H-indazole-3-carboxamide], the Ki stood at 0.3 nM. This Ki lies about 17-fold lower than the previous one. `Cn1ccnc1C(c1cccs1)n1cc(NC(=O)c2n[nH]c3c2CCC(C)(C)C3)cn1` (single isomer, unassigned) [Example 114a, 6,6-dimethyl-N-(1-((1-methyl-1H-imidazol-2-yl)(thiophen-2-yl)methyl)-1H-pyrazol-4-yl)-4,5,6,7-tetrahydro-H-indazole-3-carboxamide]: the affinity corresponds to a Ki of 0.8 nM. This Ki lies about 2.7-fold higher than the previous one.

For `Cn1ccnc1C(c1cccs1)n1cc(NC(=O)c2n[nH]c3c2CCC(C)(C)C3)cn1` (single isomer, unassigned) [Example 114b, 6,6-dimethyl-N-(1-((1-methyl-1H-imidazol-2-yl)(thiophen-2-yl)methyl)-1H-pyrazol-4-yl)-4,5,6,7-tetrahydro-H-indazole-3-carboxamide], the Ki is 12 nM. `CC1(C)CCc2c(C(=O)Nc3cnn(C(c4cccc(Cl)c4)C4CCOCC4)c3)n[nH]c2C1` (single isomer, unassigned) [Example 115a, N-(1-((3-chlorophenyl)(tetrahydro-2H-pyran-4-yl)methyl)-1H-pyrazol-4-yl)-6,6-dimethyl-4,5,6,7-tetrahydro-1H-indazole-3-carboxamide]: the affinity corresponds to a Ki of 0.2 nM. With `CC1(C)CCc2c(C(=O)Nc3cnn(C(c4cccc(Cl)c4)C4CCOCC4)c3)n[nH]c2C1` (single isomer, unassigned) [Example 115b, N-(1-((3-chlorophenyl)(tetrahydro-2H-pyran-4-yl)methyl)-1H-pyrazol-4-yl)-6,6-dimethyl-4,5,6,7-tetrahydro-1H-indazole-3-carboxamide], the Ki is 7 nM. Turning to `CC12Cc3[nH]nc(C(=O)Nc4cnn(C(c5cccnc5)C5CS(=O)(=O)C5)c4)c3CC1C2` (single isomer, unassigned) [Example 116a, N-(1-((1,1-dioxidothietan-3-yl)(pyridin-3-yl)methyl)-1H-pyrazol-4-yl)-5a-methyl-1,4,4a,5,5a,6-hexahydrocyclopropa[f]indazole-3-carboxamide], the Ki is less than 0.1 nM. In turn, `CC12Cc3[nH]nc(C(=O)Nc4cnn(C(c5cccnc5)C5CS(=O)(=O)C5)c4)c3CC1C2` (single isomer, unassigned) [Example 116b, N-(1-((1,1-dioxidothietan-3-yl)(pyridin-3-yl)methyl)-1H-pyrazol-4-yl)-5a-methyl-1,4,4a,5,5a,6-hexahydrocyclopropa[f]indazole-3-carboxamide] registered an inhibition constant Ki of 2 nM. Next, `CC1(C)CCc2c(C(=O)Nc3cnn(C(c4cccnc4)C4CS(=O)(=O)C4)c3)n[nH]c2C1` (single isomer, unassigned) [Example 117a]: 0.2 nM; `CC1(C)CCc2c(C(=O)Nc3cnn(C(c4cccnc4)C4CS(=O)(=O)C4)c3)n[nH]c2C1` (single isomer, unassigned) [Example 117b]: 6 nM; `CC1(C)CCc2c(C(=O)Nc3cnn(C(c4cccc(C(C)(C)O)c4)C4CCS(=O)(=O)CC4)c3)n[nH]c2C1` (single isomer, unassigned) [Example 119a]: 0.1 nM. For `CC1(C)CCc2c(C(=O)Nc3cnn(C(c4cccc(C(C)(C)O)c4)C4CCS(=O)(=O)CC4)c3)n[nH]c2C1` (single isomer, unassigned) [Example 119b], the inhibition constant (Ki) turned out to be 4 nM. This Ki is about 40-fold higher than that of the compound before. Regarding `CC12Cc3[nH]nc(C(=O)Nc4cnn(C(c5ccccc5)C5CC[S+]([O-])CC5)c4)c3CC1C2` (single isomer, unassigned) [Example 120a, 5a-methyl-N-(1-((1-oxidotetrahydro-2H-thiopyran-4-yl)(phenyl)methyl)-1H-pyrazol-4-yl)-1,4,4a,5,5a,6-hexahydrocyclopropa[f]indazole-3-carboxamide], the affinity corresponds to a Ki of 0.1 nM. For `CC12Cc3[nH]nc(C(=O)Nc4cnn(C(c5ccccc5)C5CC[S+]([O-])CC5)c4)c3CC1C2` (single isomer, unassigned) [Example 120b, 5a-methyl-N-(1-((1-oxidotetrahydro-2H-thiopyran-4-yl)(phenyl)methyl)-1H-pyrazol-4-yl)-1,4,4a,5,5a,6-hexahydrocyclopropa[f]indazole-3-carboxamide] the value was less than 0.1 nM. For `CC1(C)CCc2c(C(=O)Nc3cnn(C(CCN4CC(F)(F)C4)c4ccccc4)c3)n[nH]c2C1` (single isomer, unassigned) [Example 121a, N-(1-(3-(3,3-difluoroazetidin-1-yl)-1-phenylpropyl)-1H-pyrazol-4-yl)-6,6-dimethyl-4,5,6,7-tetrahydro-1H-indazole-3-carboxamide], the affinity, expressed as Ki, was 6 nM. This lies in the single-digit nanomolar range.

These data come from patent publication US20160326142A1, “PYRAZOLE CARBOXAMIDE COMPOUNDS, COMPOSITIONS AND METHODS OF USE” (Genentech, Inc., priority 2012, published 2016).
